Experimental data reported in publication PMC8266241, “Tetralone derivatives are MIF tautomerase inhibitors and attenuate macrophage activation and amplify the hypothermic response in endotoxemic mice” (Journal of Enzyme Inhibition and Medicinal Chemistry, 2021).

Tests used:
recombinant human MIF [1] = biological target: T1, recombinant human MIF (Homo sapiens, UniProt P14174); test: Tautomerase assay: enol-keto tautomeric conversion of phenylpyruvate (ketonase reaction); type: biochemical; conditions: for IC50: enol-keto conversion of phenylpyruvate, 100 µM substrate, pH 6.5, read-out: Inhibition of ketonase (IC50); for IC50enolase/IC50ketonase: selectivity for ketonase
T1 construct: purchased ATGen Co. Ltd., Seoul, Republic of Korea
T1 sequence (P14174 2-115 limits assumed): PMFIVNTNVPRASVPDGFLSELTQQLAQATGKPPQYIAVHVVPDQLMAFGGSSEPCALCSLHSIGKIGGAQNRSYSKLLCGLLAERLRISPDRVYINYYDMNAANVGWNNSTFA
Protocol: The enol-keto tautomeric conversion of phenylpyruvate (ketonase reaction) was assessed at room temperature by monitoring the decrease in absorbance at 288 nm on a dual path Shimadzu 2100 UV spectrophotometer (Shimadzu, Kyoto, Japan) according to Taylor et al.[55] with minor modifications. Briefly, the 0.72 ml reaction mixture consisted of the enzyme at a final concentration of 0.4 µg/ml and the substrate in a 50 mM sodium phosphate buffer (pH = 6.5). The phenylpyruvate substrate was dissolved fresh in absolute ethanol to yield a final concentration of 100 µM. The reaction was monitored for 75 s at room temperature. A recombinant human MIF (from ATGen Co. Ltd., Seoul, Republic of Korea) was used as the enzyme source. Inhibitors were dissolved fresh in ethanol or DMSO. […] The compounds were diluted to achieve final concentrations of 200, 100, 50, 20, 5, 1, and 0.5 µM in the reaction mixture. All data presented have been derived from consonant measurements repeated at least three times. […] The areas under the curves obtained with and without the inhibitors were used to compare the conversion rates of the substrate.

recombinant human MIF [2] = biological target: T1, recombinant human MIF; test: Tautomerase assay: keto-enol tautomeric conversion of phenylpyruvate (enolase activity); type: biochemical; conditions: for IC50: keto-enol conversion of phenylpyruvate, read-out: Inhibition of enolase (IC50)
RAW264.7 cells [3] = test: ROS production in LPS-induced macrophages (DHR123); type: cell-based, mouse; conditions: 20 µM pre-treatment, 1 µg/ml LPS 24 h
Protocol: (§1) In cell culture experiments, we used RAW264.7 mouse monocyte/macrophage cell line (ECACC, Salisbury, UK; passage number: 8–15) and RAW-Blue™ cells (Invivogen, Toulouse France, passage number: 10–14). RAW264.7 and RAW-Blue™ cells were cultured in 5% CO2 at 37 °C in endotoxin-tested Dulbecco’s Modified Eagle’s Medium (high glucose, 4.5 g/L, 2 mM L-glutamine; Corning, Corning Incorporated Costar, Corning, NY) supplemented with 10% FBS. For culturing RAW-Blue™ cells, we also added 100 µg/ml normocin and 200 µg/ml zeocin to the medium. The day before the experiments, cells were plated onto 24- or 96-well plates and cultured overnight. […] The freshly synthesised tetralone derivatives were dissolved in DMSO and applied in 20 µM concentration as a pre-treatment, added 30 min before LPS induction. To exclude the effects of vehicle, both CTRL and LPS-treated cells received the same amount of DMSO.
To measure the amount of reactive oxygen species we seeded RAW264.7 cells onto 96-well plates in a density of 10^5cells/well. Cells were treated with the tetralones as a pre-treatment and they were induced with 1 µg/ml LPS for 24 h. Then 2 µM dihydrorhodamine123 (DHR123; Life Technologies, Carlsbad, CA) fluorescent dye was added and incubated for an additional 2 h. Fluorescent intensity of the dye (excitation 490 nm/emission 510–570 nm) was measured with Glomax Multi Detection System (Promega®, Madison, WI, USA).

RAW264.7 cells [4] = test: Nitrite production in LPS-induced macrophages (Griess reagent); type: cell-based, mouse; conditions: 20 µM pre-treatment, 1 µg/ml LPS 24 h
Protocol: as §1
For nitrite measurements, we applied the same culturing conditions, treatments, and equipment as described above. After 24 h of incubation, 50 µl medium was removed and added to equal amount of Griess reagent (Sigma-Aldrich, St. Louis, MO, USA) in 96-well plate. The optical density was measured at 550 nm wavelength.

[5] = tested on: NF-κB activation in RAW-Blue™ cells; test: NF-κB activation reporter assay (QUANTI-Blue); type: cell-based, mouse; conditions: 20 µM pre-treatment, 1 µg/ml LPS 24 h, vs LPS-activated cells
Protocol: as §1
The detection of NF-κB activation was accomplished by using RAW-Blue™ cells. RAW-Blue™ cells are genetically modified RAW264.7 macrophages, which are able to secrete embryonic alkaline phosphatase (EAP) upon LPS induction and following NF-κB activation. The levels of EAP can be examined using QUANTI-Blue™ detection medium.
RAW-Blue™ cells were seeded into 96-well plate at a density of 10^5cells/well. Cells were treated with tetralones (pre-treatment, 20 µM) and with 1 µg/ml LPS. 24 h after LPS treatment 20 µl medium was removed and incubated with 100 µl QUANTI-Blue™ detection medium (Invivogen; Toulouse, France) in 96-well plates. The optical density was measured at 600 nm.

TNF-α in RAW264.7 cells = test: TNF-α production, ELISA; type: cell-based, mouse; conditions: 20 µM pre-treatment, 1 µg/ml LPS 24 h
Protocol: as §1, with “To exclude the effects of vehicle, both CTRL and LPS-treated cells received the same amount of DMSO.” left out
(§2) For cytokine concentration measurements, RAW264.7 cells were cultured in 24-well plates at a density of 5*10^5 cells/well and treated with tetralones (pre-treatment, 20 µM) and with 1 µg/ml LPS for 24 h. TNF-α, IL-6 and CCL-2 levels were determined from the culturing media by using Ready-Set-Go ELISA kits (eBioscience, San Diego, CA, USA) for TNF-α and IL-6 detection and mouse CCL-2 uncoated ELISA-kit (Invitrogen, Vienna, Austria) for CCL-2 determination. ELISA-kits were applied as provided by the protocol of the manufacturer, the optical density was measured at 450 nm.

IL-6 in RAW264.7 cells = test: IL-6 production, ELISA; type: cell-based, mouse; conditions: 20 µM pre-treatment, 1 µg/ml LPS 24 h
Protocol: as §1, with “To exclude the effects of vehicle, both CTRL and LPS-treated cells received the same amount of DMSO.” left out
as §2

Compound | IC50 (recombinant human MIF [1]) [µM] | IC50 (recombinant human MIF [2]) [µM] | other results
O=C1/C(=C/c2ccccc2)C[S+]([O-])c2ccccc21 (racemic) [Compound 37] | 94.6 ± 25.4 | 193 ± 59 | 
O=C1/C(=C/c2ccccc2)Cc2ccccc21 [Compound 1, E-2-phenylmethylene-1-indanone] | 82.8 ± 16.5 | 20.2 ± 3.9 | 
O=C1/C(=C/c2ccccc2)CCc2ccccc21 [Compound 2] | 127 ± 20 | 113 ± 16 | 
O=C1/C(=C/c2ccccc2)CCCc2ccccc21 [Compound 3, E-2-phenylmethylene-1-benzosuberone] | 84 ± 15.3 | 129 ± 19 | 
Cc1ccc(/C=C2\CCc3ccccc3C2=O)cc1 [Compound 4] | 16.5 ± 3.4 | 2290 ± 343 | effect on ROS level (RAW264.7 cells [3]): failed to modify ROS level; effect on nitrite production (RAW264.7 cells [4]): could also inhibit nitrite production, but to a lower extent; effect on NF-κB activation [5]: slight, but statistically significant inhibitory effect
COc1ccc(/C=C2\CCc3ccccc3C2=O)cc1 [Compound 5] | 57 ± 14.1 | 33.4 ± 8.8 | 
O=C1/C(=C/c2ccc(Cl)cc2)CCc2ccccc21 [Compound 6] | 59.1 ± 9.7 | 42.8 ± 3.1 | 
O=C1/C(=C/c2ccccc2Cl)CCc2ccccc21 [Compound 7] | 2640 ± 406 | 458 ± 73 | 
O=C1/C(=C/c2ccc(Br)cc2)CCc2ccccc21 [Compound 8] | 52.2 ± 11.5 | 232 ± 54 | 
O=C1/C(=C/c2cccc(Br)c2)CCc2ccccc21 [Compound 9] | 7340 ± 1020 | 3350 ± 424 | 
O=C1/C(=C/c2ccc(F)cc2)CCc2ccccc21 [Compound 10] | 72.4 ± 3.4 | 42.1 ± 4.3 | 
O=C1/C(=C/c2c(Cl)cccc2Cl)CCc2ccccc21 [Compound 11] | 58.9 ± 10.3 | 35.5 ± 5.9 | 
O=C1/C(=C/c2ccc(Cl)c(Cl)c2)CCc2ccccc21 [Compound 12] | 2620 ± 696 | 91.5 ± 9 | 
O=C1/C(=C/c2ccc(Cl)cc2Cl)CCc2ccccc21 [Compound 13] | 16.9 ± 4.2 | 301 ± 42 | IC50enolase/IC50ketonase (recombinant human MIF [1]): 18
O=C(O)c1ccc(/C=C2\CCc3ccccc3C2=O)cc1 [Compound 14] | 187 ± 32 | 37.7 ± 16.3 | 
CN(C)c1ccc(/C=C2\CCc3ccccc3C2=O)cc1 [Compound 15] | 90.2 ± 15.1 | 495 ± 101 | 
N#Cc1ccc(/C=C2\CCc3ccccc3C2=O)cc1 [Compound 16] | 146 ± 17 | 43.2 ± 12.4 | 
COc1ccc(/C=C2\CCc3ccccc3C2=O)cc1OC [Compound 17] | 585 ± 94 | 302 ± 63 | 

Compound | IC50 (recombinant human MIF [1]) [µM] | IC50 (recombinant human MIF [2]) [µM] | other results
O=C1/C(=C/c2ccc3c(c2)OCO3)CCc2ccccc21 [Compound 18] | 50.7 ± 6 | 213 ± 31 | 
O=C1/C(=C/c2ccco2)CCc2ccccc21 [Compound 19] | 57.7 ± 12.6 | 25.4 ± 4.7 | 
O=C1/C(=C/c2cccs2)CCc2ccccc21 [Compound 20] | 54 ± 5.5 | 52.3 ± 7.6 | 
O=C1/C(=C/c2ccc[nH]2)CCc2ccccc21 [Compound 21] | 142 ± 31 | 125 ± 39 | 
Cn1cccc1C=C1CCc2ccccc2C1=O [Compound 22] | 23.8 ± 3.8 | 27.8 ± 5.6 | 
O=C1/C(=C/c2c[nH]c3ccccc23)CCc2ccccc21 [Compound 23] | 58.8 ± 10.6 | 2.89 ± 0.75 | IC50ketonase/IC50enolase (recombinant human MIF [2]; selectivity for enolase): 20; effect on ROS level (RAW264.7 cells [3]): induced a slight increase; effect on nitrite production (RAW264.7 cells [4]): could also inhibit nitrite production, but to a lower extent; effect on NF-κB activation [5]: slight, but statistically significant inhibitory effect
O=C1C(=Cc2cccnc2)CCc2ccccc21 [Compound 25] | 20.3 ± 5.5 | 28.6 ± 6 | 
O=C1/C(=C/c2ccncc2)CCc2ccccc21 [Compound 26] | 21 ± 6.9 | 209 ± 77 | IC50enolase/IC50ketonase (recombinant human MIF [1]): 10; decrease in ROS concentrations (RAW264.7 cells [3]; vs LPS-activated cells): ~20%; lower nitrite concentrations (RAW264.7 cells [4]; vs LPS-activated cells): ~50%; effect on NF-κB activation [5]: slight, but statistically significant inhibitory effect; effect on TNF-α production (TNF-α in RAW264.7 cells): reduced TNF-α production; effect on IL-6 production (IL-6 in RAW264.7 cells): had the most dominant effect
O=C1/C(=C/c2ccccc2)COc2ccccc21 [Compound 27] | 267 ± 59 | 1740 ± 483 | 
Cc1ccc(/C=C2\COc3ccccc3C2=O)cc1 [Compound 28] | 102 ± 19 | 3620 ± 829 | 
Cc1cccc(/C=C2\COc3ccccc3C2=O)c1 [Compound 29] | 56.1 ± 8.8 | 443 ± 112 | 
COc1ccc(/C=C2\COc3ccccc3C2=O)cc1 [Compound 30] | 96 ± 29.9 | 425 ± 70 | 
COc1cccc(/C=C2\COc3ccccc3C2=O)c1 [Compound 31] | 97 ± 20.7 | 205 ± 32 | 
O=C1/C(=C/c2ccc(Br)cc2)COc2ccccc21 [Compound 33] | 311 ± 77 | 1890 ± 438 | 
O=C1/C(=C/c2ccccc2Br)COc2ccccc21 [Compound 34] | 98.3 ± 16 | 3200 ± 887 | 
O=C1/C(=C/c2ccccc2)C(c2ccccc2)Oc2ccccc21 (stereo not shown) [Compound 35] | 419 ± 113 |  | 
O=C1/C(=C\c2ccccc2)CSc2ccccc21 [Compound 36] | 208 ± 42 | 633 ± 108 | 
O=C1/C(=C/c2ccccc2)CS(=O)(=O)c2ccccc21 [Compound 38] | 160 ± 38 | 151 ± 27 | 
